Among the data in the NIST ThermoML archive (doi:10.1016/j.jct.2011.06.007) are activity coefficient values, retold here.

This data set in a line: activity coefficient (dimensionless); of the first substance listed, at infinite dilution; xn = mol fraction of the nth substance listed. The conditions noted are these: 101 kPa, Liquid, Chromatography, x1 = 0.

± gives the expanded uncertainty stated by the source.

Consider `Cc1cccc(C)c1` [1,3-dimethylbenzene] + CCCC[N+]1(C)CCCC1.N#C[B-](C#N)(C#N)C#N, for which the activity coefficient is, setting by setting: (318.15 K) 1.54 ± 0.1; (328.15 K) 1.56 ± 0.1; (338.15 K) 1.59 ± 0.11; (348.15 K) 1.62 ± 0.11; (358.15 K) 1.64 ± 0.11; (368.15 K) 1.66 ± 0.11.

In the case of `CCCO` [propan-1-ol] + CCCC[N+]1(C)CCCC1.N#C[B-](C#N)(C#N)C#N, the activity coefficient by setting is: (318.15 K) 1.5 ± 0.1; (328.15 K) 1.36 ± 0.09; (338.15 K) 1.27 ± 0.08; (348.15 K) 1.18 ± 0.08; (358.15 K) 1.1 ± 0.07; (368.15 K) 1.04 ± 0.07.

For `C1CCOC1` [tetrahydrofuran] + CCCC[N+]1(C)CCCC1.N#C[B-](C#N)(C#N)C#N, the activity coefficient reads like this: (318.15 K) 0.61 ± 0.043; (328.15 K) 0.611 ± 0.043; (338.15 K) 0.639 ± 0.044; (348.15 K) 0.652 ± 0.045; (358.15 K) 0.661 ± 0.045; (368.15 K) 0.679 ± 0.046.

Consider `C=CCCCCCC` [oct-1-ene] + CCCC[N+]1(C)CCCC1.N#C[B-](C#N)(C#N)C#N, for which the activity coefficient (318.15 K) was 15.4 ± 1.1; the activity coefficient (328.15 K) was found to be 14.6 ± 1; the activity coefficient (338.15 K) is 14.1 ± 1; the activity coefficient (348.15 K) is 13.4 ± 0.9; the activity coefficient (358.15 K) stood at 12.6 ± 0.9; the activity coefficient (368.15 K) came out at 12.5 ± 0.9.

Take `C1CCCC1` [cyclopentane] + CCCC[N+]1(C)CCCC1.N#C[B-](C#N)(C#N)C#N: the activity coefficient was 5.87 ± 0.4 (318.15 K); 5.47 ± 0.37 (328.15 K); 5.27 ± 0.36 (338.15 K); 5.18 ± 0.35 (348.15 K); 4.88 ± 0.33 (358.15 K); 4.72 ± 0.32 (368.15 K).

Consider `C1CCCCCC1` [cycloheptane] + CCCC[N+]1(C)CCCC1.N#C[B-](C#N)(C#N)C#N, for which the activity coefficient amounted to 10.4 ± 0.7 (318.15 K); 9.7 ± 0.66 (328.15 K); 9.18 ± 0.63 (338.15 K); 8.85 ± 0.6 (348.15 K); 8.21 ± 0.56 (358.15 K); 7.78 ± 0.53 (368.15 K).

As for `CCC(C)(C)C` [2,2-dimethylbutane] + CCCC[N+]1(C)CCCC1.N#C[B-](C#N)(C#N)C#N, the activity coefficient is, setting by setting: (318.15 K) 15.7 ± 1.1; (328.15 K) 14 ± 1; (338.15 K) 13.2 ± 0.9; (348.15 K) 12.9 ± 0.9; (358.15 K) 12.1 ± 0.8; (368.15 K) 11.2 ± 0.8.

Take `C1CCCCCCC1` [cyclooctane] + CCCC[N+]1(C)CCCC1.N#C[B-](C#N)(C#N)C#N: the activity coefficient was found to be 13.5 ± 0.9 (318.15 K); 12.5 ± 0.9 (328.15 K); 11.6 ± 0.8 (338.15 K); 11.2 ± 0.8 (348.15 K); 10.3 ± 0.7 (358.15 K); 9.76 ± 0.67 (368.15 K).

Consider `CCCCO` [butan-1-ol] + CCCC[N+]1(C)CCCC1.N#C[B-](C#N)(C#N)C#N, for which the activity coefficient is, setting by setting: (318.15 K) 1.88 ± 0.13; (328.15 K) 1.67 ± 0.11; (338.15 K) 1.55 ± 0.1; (348.15 K) 1.44 ± 0.09; (358.15 K) 1.33 ± 0.09; (368.15 K) 1.23 ± 0.08.

Take `CCCCCCC` [heptane] + CCCC[N+]1(C)CCCC1.N#C[B-](C#N)(C#N)C#N: the activity coefficient was found to be 23 ± 1.6 (318.15 K); 21.5 ± 1.5 (328.15 K); 19.8 ± 1.4 (338.15 K); 19 ± 1.3 (348.15 K); 17.5 ± 1.2 (358.15 K); 16.6 ± 1.1 (368.15 K).

`CCCCCC` [hexane] + CCCC[N+]1(C)CCCC1.N#C[B-](C#N)(C#N)C#N: the activity coefficient runs as follows: (318.15 K) 16.4 ± 1.1; (328.15 K) 15.3 ± 1; (338.15 K) 14.3 ± 1; (348.15 K) 13.8 ± 0.9; (358.15 K) 12.9 ± 0.9; (368.15 K) 12.3 ± 0.8.

`Cc1ccccc1` [toluene] + CCCC[N+]1(C)CCCC1.N#C[B-](C#N)(C#N)C#N: the activity coefficient by setting is: (318.15 K) 1.09 ± 0.07; (328.15 K) 1.11 ± 0.07; (338.15 K) 1.14 ± 0.07; (348.15 K) 1.16 ± 0.07; (358.15 K) 1.18 ± 0.08; (368.15 K) 1.2 ± 0.08.

Consider `CCO` [ethanol] + CCCC[N+]1(C)CCCC1.N#C[B-](C#N)(C#N)C#N, for which the activity coefficient came to 1.29 ± 0.08 (318.15 K); 1.17 ± 0.07 (328.15 K); 1.09 ± 0.07 (338.15 K); 1.02 ± 0.06 (348.15 K); 0.95 ± 0.06 (358.15 K); 0.894 ± 0.057 (368.15 K).

`CCCCCCCC` [octane] + CCCC[N+]1(C)CCCC1.N#C[B-](C#N)(C#N)C#N: the activity coefficient (318.15 K) was 32.6 ± 2.2; the activity coefficient (328.15 K) was determined as 30.2 ± 2.1; the activity coefficient (338.15 K) was determined as 27.5 ± 1.9; the activity coefficient (348.15 K) was 26.2 ± 1.8; the activity coefficient (358.15 K) stood at 23.8 ± 1.6; the activity coefficient (368.15 K) stood at 22.5 ± 1.5.

Regarding `Cc1ccccc1C` [1,2-dimethylbenzene] + CCCC[N+]1(C)CCCC1.N#C[B-](C#N)(C#N)C#N, the activity coefficient reads like this: (318.15 K) 1.34 ± 0.09; (328.15 K) 1.36 ± 0.09; (338.15 K) 1.39 ± 0.09; (348.15 K) 1.41 ± 0.09; (358.15 K) 1.43 ± 0.09; (368.15 K) 1.46 ± 0.1.

Take `C=CCCCCC` [1-heptene] + CCCC[N+]1(C)CCCC1.N#C[B-](C#N)(C#N)C#N: the activity coefficient (318.15 K) was determined as 10.7 ± 0.7; the activity coefficient (328.15 K) is 10.2 ± 0.7; the activity coefficient (338.15 K) is 10 ± 0.7; the activity coefficient (348.15 K) came out at 9.72 ± 0.66; the activity coefficient (358.15 K) turned out to be 9.09 ± 0.62; the activity coefficient (368.15 K) amounted to 8.93 ± 0.61.

On to `c1ccsc1` [thiophene] + CCCC[N+]1(C)CCCC1.N#C[B-](C#N)(C#N)C#N, for which the activity coefficient reads like this: (318.15 K) 0.659 ± 0.045; (328.15 K) 0.663 ± 0.045; (338.15 K) 0.684 ± 0.046; (348.15 K) 0.702 ± 0.047; (358.15 K) 0.711 ± 0.047; (368.15 K) 0.734 ± 0.049.

Consider `Cc1ccc(C)cc1` [1,4-dimethylbenzene] + CCCC[N+]1(C)CCCC1.N#C[B-](C#N)(C#N)C#N, for which the activity coefficient (318.15 K) is 1.46 ± 0.1; the activity coefficient (328.15 K) was determined as 1.49 ± 0.1; the activity coefficient (338.15 K) turned out to be 1.54 ± 0.1; the activity coefficient (348.15 K) was found to be 1.58 ± 0.1; the activity coefficient (358.15 K) was determined as 1.59 ± 0.11; the activity coefficient (368.15 K) is 1.62 ± 0.11.

Turning to `CCCC(C)=O` [pentan-2-one] + CCCC[N+]1(C)CCCC1.N#C[B-](C#N)(C#N)C#N, the activity coefficient was determined as 0.692 ± 0.047 (318.15 K); 0.701 ± 0.047 (328.15 K); 0.721 ± 0.048 (338.15 K); 0.735 ± 0.049 (348.15 K); 0.738 ± 0.049 (358.15 K); 0.755 ± 0.05 (368.15 K).

With `CCOCC` [diethyl ether] + CCCC[N+]1(C)CCCC1.N#C[B-](C#N)(C#N)C#N, the activity coefficient turned out to be 2.32 ± 0.16 (318.15 K); 2.33 ± 0.16 (328.15 K); 2.34 ± 0.16 (338.15 K); 2.36 ± 0.16 (348.15 K); 2.37 ± 0.16 (358.15 K); 2.39 ± 0.16 (368.15 K).

On to `CC(C)=O` [acetone] + CCCC[N+]1(C)CCCC1.N#C[B-](C#N)(C#N)C#N, for which the activity coefficient is 0.439 ± 0.035 (318.15 K); 0.441 ± 0.035 (328.15 K); 0.454 ± 0.036 (338.15 K); 0.464 ± 0.036 (348.15 K); 0.468 ± 0.037 (358.15 K); 0.485 ± 0.037 (368.15 K).

Consider `C#CCCCCCC` [1-octyne] + CCCC[N+]1(C)CCCC1.N#C[B-](C#N)(C#N)C#N, for which the activity coefficient was 4.93 ± 0.34 (318.15 K); 4.9 ± 0.33 (328.15 K); 4.88 ± 0.33 (338.15 K); 4.85 ± 0.33 (348.15 K); 4.81 ± 0.33 (358.15 K); 4.78 ± 0.33 (368.15 K).

For the compound `C#CCCCCC` [1-heptyne] + CCCC[N+]1(C)CCCC1.N#C[B-](C#N)(C#N)C#N, the activity coefficient (318.15 K) was found to be 3.49 ± 0.24; the activity coefficient (328.15 K) is 3.5 ± 0.24; the activity coefficient (338.15 K) was determined as 3.51 ± 0.24; the activity coefficient (348.15 K) turned out to be 3.53 ± 0.24; the activity coefficient (358.15 K) was 3.54 ± 0.24; the activity coefficient (368.15 K) amounted to 3.56 ± 0.24.

Turning to `c1ccccc1` [benzene] + CCCC[N+]1(C)CCCC1.N#C[B-](C#N)(C#N)C#N, the activity coefficient by setting is: (318.15 K) 0.81 ± 0.052; (328.15 K) 0.816 ± 0.053; (338.15 K) 0.836 ± 0.054; (348.15 K) 0.855 ± 0.055; (358.15 K) 0.87 ± 0.056; (368.15 K) 0.887 ± 0.056.

`CCC(C)(C)OC` [2-methoxy-2-methylbutane] + CCCC[N+]1(C)CCCC1.N#C[B-](C#N)(C#N)C#N: the activity coefficient runs as follows: (318.15 K) 3.32 ± 0.23; (328.15 K) 3.34 ± 0.23; (338.15 K) 3.35 ± 0.23; (348.15 K) 3.36 ± 0.23; (358.15 K) 3.37 ± 0.23; (368.15 K) 3.39 ± 0.23.

Regarding `CCCCCCCCCC` [decane] + CCCC[N+]1(C)CCCC1.N#C[B-](C#N)(C#N)C#N, the activity coefficient by setting is: (318.15 K) 65.7 ± 4.5; (328.15 K) 59.5 ± 4.1; (338.15 K) 53.8 ± 3.7; (348.15 K) 50.4 ± 3.5; (358.15 K) 44.9 ± 3.1; (368.15 K) 42.1 ± 2.9.

With `C=CCCCC` [hex-1-ene] + CCCC[N+]1(C)CCCC1.N#C[B-](C#N)(C#N)C#N, the activity coefficient runs as follows: (318.15 K) 7.68 ± 0.52; (328.15 K) 7.31 ± 0.5; (338.15 K) 7.16 ± 0.49; (348.15 K) 7.03 ± 0.48; (358.15 K) 6.57 ± 0.45; (368.15 K) 6.57 ± 0.45.
